From patent US8901118B2, “Compounds and methods for kinase modulation, and indications therefor” (Plexxikon Inc., priority 2010, dated 2014)

Key:
c-Kit kinase = c-Kit kinase (Homo sapiens, UniProt P10721); assay: c-Kit kinase biochemical activity assay (AlphaScreen, biotin-(E4Y)10 phosphorylation); details: 100 μM ATP; read-out: Biochemical Inhibition IC50 Kit
In short: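 AlphaScreen read-out (streptavidin donor, anti-phosphotyrosine PY20 acceptor beads, EDTA stop) of c-Kit activity. Reaction: 0.75 ng kinase, 100 µM ATP, 30 nM biotin-(E4Y)10, 25 mM HEPES pH 7.5, 2 mM MgCl2, 2 mM MnCl2, 5% DMSO, 1 h room temperature. IC50 derived over an 8-point, two-fold dilution series.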

BCR-KIT BaF3 cells = target: T1, BCR-KIT BaF3 cells (Homo sapiens, UniProt P10721); assay: BaF3 BCR-KIT cell proliferation assay (ATPlite); format: cell-based; details: read-out: Inhibition of Cell Proliferation IC50, BCR/BaF3 Kit
T1 construct: fused on or other part: P11274 (Breakpoint cluster region protein)
In short: (§1)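 Cells are plated overnight: BaF3 at 10,000/well in G418 medium without WEHI/IL-3, MV-4-11 at 25,000/well in IMDM with 10% FBS. An 8-point 1:3 compound titration (10 μM top) is then added, and plates are incubated 3 days at 37 °C before ATPlite readout and IC50 determination.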

BCR-NTRK1 BaF3 cells = target: T2, BCR-NTRK1 BaF3 cells (Homo sapiens, UniProt P04629); assay: BaF3 BCR-NTRK1 cell proliferation assay (ATPlite); format: cell-based; details: read-out: Inhibition of Cell Proliferation IC50, BCR/BaF3 TrkA
T2 construct: fused on or other part: P11274 (Breakpoint cluster region protein)
In short: as §1

BCR-NTRK2 BaF3 cells = target: T3, BCR-NTRK2 BaF3 cells (Homo sapiens, UniProt Q16620); assay: BaF3 BCR-NTRK2 cell proliferation assay (ATPlite); format: cell-based; details: read-out: Inhibition of Cell Proliferation IC50, BCR/BaF3 TrkB
T3 construct: fused on or other part: P11274 (Breakpoint cluster region protein)
In short: as §1

BCR-NTRK3 BaF3 cells = target: T4, BCR-NTRK3 BaF3 cells (Homo sapiens, UniProt Q16288); assay: BaF3 BCR-NTRK3 cell proliferation assay (ATPlite); format: cell-based; details: read-out: Inhibition of Cell Proliferation IC50, BCR/BaF3 TrkC
T4 construct: fused on or other part: P11274 (Breakpoint cluster region protein)
In short: as §1

T4 sequence (Q16288 whole entry, the tested form may be a part): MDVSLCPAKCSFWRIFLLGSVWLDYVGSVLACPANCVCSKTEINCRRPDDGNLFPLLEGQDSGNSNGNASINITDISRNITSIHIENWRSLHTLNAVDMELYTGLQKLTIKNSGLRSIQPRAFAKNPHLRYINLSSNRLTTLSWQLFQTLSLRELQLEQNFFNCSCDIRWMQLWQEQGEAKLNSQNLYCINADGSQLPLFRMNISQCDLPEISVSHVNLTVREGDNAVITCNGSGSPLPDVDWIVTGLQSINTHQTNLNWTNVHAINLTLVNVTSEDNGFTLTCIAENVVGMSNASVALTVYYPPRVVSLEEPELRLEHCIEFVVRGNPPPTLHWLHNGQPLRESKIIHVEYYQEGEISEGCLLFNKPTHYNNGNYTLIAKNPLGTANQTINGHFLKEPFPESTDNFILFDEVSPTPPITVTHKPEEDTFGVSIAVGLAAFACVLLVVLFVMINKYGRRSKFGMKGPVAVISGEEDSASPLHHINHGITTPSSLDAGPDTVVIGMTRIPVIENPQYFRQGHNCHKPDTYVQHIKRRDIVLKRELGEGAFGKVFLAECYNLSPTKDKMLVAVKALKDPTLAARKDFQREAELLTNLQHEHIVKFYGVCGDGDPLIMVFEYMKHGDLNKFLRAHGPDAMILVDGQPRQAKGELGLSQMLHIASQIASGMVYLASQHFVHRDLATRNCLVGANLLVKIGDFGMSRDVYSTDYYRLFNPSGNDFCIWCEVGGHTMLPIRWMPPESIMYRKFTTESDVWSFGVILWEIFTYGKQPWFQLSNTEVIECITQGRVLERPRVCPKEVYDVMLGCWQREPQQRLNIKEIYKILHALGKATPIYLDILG
T3 sequence (Q16620 538-807): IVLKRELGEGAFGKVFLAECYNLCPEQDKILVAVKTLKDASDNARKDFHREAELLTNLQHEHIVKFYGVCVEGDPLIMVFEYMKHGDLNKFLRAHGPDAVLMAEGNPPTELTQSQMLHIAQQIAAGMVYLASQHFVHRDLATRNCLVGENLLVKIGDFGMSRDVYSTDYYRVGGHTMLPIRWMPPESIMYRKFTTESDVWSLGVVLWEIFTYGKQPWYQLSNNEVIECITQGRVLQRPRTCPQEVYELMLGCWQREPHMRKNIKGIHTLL
T2 sequence (P04629 510-781): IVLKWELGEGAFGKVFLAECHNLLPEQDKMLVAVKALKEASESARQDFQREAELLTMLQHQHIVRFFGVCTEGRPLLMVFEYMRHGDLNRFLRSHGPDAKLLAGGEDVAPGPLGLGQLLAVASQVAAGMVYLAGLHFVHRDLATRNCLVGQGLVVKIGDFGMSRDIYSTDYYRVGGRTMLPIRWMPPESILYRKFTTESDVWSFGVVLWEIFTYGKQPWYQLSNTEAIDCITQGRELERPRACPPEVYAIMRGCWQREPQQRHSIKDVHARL
c-Kit kinase, sequence (P10721 26-976): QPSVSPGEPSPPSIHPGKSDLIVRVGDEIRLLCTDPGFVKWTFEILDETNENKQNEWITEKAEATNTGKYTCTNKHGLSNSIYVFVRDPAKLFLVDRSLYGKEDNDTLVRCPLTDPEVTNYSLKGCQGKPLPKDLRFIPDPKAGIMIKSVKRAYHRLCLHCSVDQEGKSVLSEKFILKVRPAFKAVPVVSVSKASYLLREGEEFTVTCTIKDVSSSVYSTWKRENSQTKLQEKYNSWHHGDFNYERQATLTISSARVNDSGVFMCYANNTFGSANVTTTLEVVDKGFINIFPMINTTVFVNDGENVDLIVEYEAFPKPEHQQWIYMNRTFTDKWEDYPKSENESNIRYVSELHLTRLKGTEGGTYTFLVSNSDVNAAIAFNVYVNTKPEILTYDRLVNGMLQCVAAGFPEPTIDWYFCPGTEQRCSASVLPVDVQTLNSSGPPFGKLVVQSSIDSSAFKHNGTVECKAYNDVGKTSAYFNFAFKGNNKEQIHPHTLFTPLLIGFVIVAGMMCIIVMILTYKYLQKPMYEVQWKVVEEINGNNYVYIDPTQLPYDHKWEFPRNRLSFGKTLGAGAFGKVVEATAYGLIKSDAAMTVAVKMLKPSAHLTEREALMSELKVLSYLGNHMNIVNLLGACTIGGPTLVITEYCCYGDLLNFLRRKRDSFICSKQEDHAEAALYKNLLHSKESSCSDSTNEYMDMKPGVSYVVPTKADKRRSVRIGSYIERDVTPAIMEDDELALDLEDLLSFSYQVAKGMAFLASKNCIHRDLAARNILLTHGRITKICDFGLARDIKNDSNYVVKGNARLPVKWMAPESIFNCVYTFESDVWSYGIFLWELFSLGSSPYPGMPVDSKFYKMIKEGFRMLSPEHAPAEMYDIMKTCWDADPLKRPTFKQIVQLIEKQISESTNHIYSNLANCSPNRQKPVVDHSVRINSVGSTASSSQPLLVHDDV
T1 sequence (P10721 589-937): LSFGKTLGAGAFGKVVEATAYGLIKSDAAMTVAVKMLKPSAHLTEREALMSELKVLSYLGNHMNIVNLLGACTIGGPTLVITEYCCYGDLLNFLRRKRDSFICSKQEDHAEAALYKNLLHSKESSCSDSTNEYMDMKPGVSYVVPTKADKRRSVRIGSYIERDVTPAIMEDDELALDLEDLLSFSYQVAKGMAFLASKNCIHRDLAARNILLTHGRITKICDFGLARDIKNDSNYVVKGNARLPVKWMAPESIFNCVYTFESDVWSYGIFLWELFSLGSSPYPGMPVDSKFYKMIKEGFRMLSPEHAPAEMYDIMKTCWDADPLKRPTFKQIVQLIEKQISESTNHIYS

IC50 (c-Kit kinase) [nM] | IC50 (BCR-KIT BaF3 cells) [nM] | IC50 (BCR-NTRK1 BaF3 cells) [nM] | IC50 (BCR-NTRK2 BaF3 cells) [nM] | IC50 (BCR-NTRK3 BaF3 cells) [nM] | SMILES
> 1000 | > 10000 | > 10000 | > 10000 | > 10000 | Clc1cnc2[nH]cc(Cc3cnc(NC4CCC4)nc3)c2c1 [Compound P-3007, [5-(5-Chloro-1H-pyrrolo[2,3-b]pyridin-3-ylmethyl)-pyrimidin-2-yl]-cyclobutyl-amine]
< 1000 | > 1000 |  |  |  | Cc1cnc2[nH]cc(Cc3ccc(NC4CCCCC4)nc3F)c2c1 [Compound P-3008, cyclohexyl-[6-fluoro-5-(5-methyl-1H-pyrrolo[2,3-b]pyridin-3-ylmethyl)-pyridin-2-yl]-amine]
< 100 | < 100 | < 10 | < 10 | < 10 | O=C(c1ccc(Nc2ccc(C3CC3)nc2)nc1F)c1c[nH]c2ncnc(C3CC3)c12 [Compound P-4040, [6-(6-Cyclopropyl-pyridin-3-ylamino)-2-fluoro-pyridin-3-yl]-(4-cyclopropyl-7H-pyrrolo[2,3-d]pyrimidin-5-yl)-methanone]
< 100 | < 100 | < 10 | < 10 | < 10 | Fc1nc(Nc2ccc(C3CC3)nc2)ccc1Cc1c[nH]c2ncnc(C3CC3)c12 [Compound P-4041, (6-Cyclopropyl-pyridin-3-yl)-[5-(4-cyclopropyl-7H-pyrrolo[2,3-d]pyrimidin-5-ylmethyl)-6-fluoro-pyridin-2-yl]-amine]
< 1000 | < 1000 | < 1000 | < 1000 | < 1000 | Nc1ncnc2[nH]cc(C(=O)c3ccc(NC4CCC(F)(F)CC4)nc3Cl)c12 [Compound P-4046, (4-amino-7H-pyrrolo[2,3-d]pyrimidin-5-yl)-[2-chloro-6-[(4,4-difluorocyclohexyl)amino]-3-pyridyl]methanone]
> 1000 | > 1000 | > 1000 | > 1000 | > 1000 | CC(C)=CNc1ncnc2[nH]cc(C(=O)c3ccc(NC4CCC(F)(F)CC4)nc3Cl)c12 [Compound P-4047, [2-chloro-6-[(4,4-difluorocyclohexyl)amino]-3-pyridyl]-[4-(2-methylprop-1-enylamino)-7H-pyrrolo[2,3-d]pyrimidin-5-yl]methanone]
< 10 | < 1000 | < 1000 | < 10 | < 10 | Nc1ncnc2[nH]cc(C(=O)c3ccc(Nc4ccc(C5CC5)nc4)nc3F)c12 [Compound P-4048, (4-amino-7H-pyrrolo[2,3-d]pyrimidin-5-yl)-[6-[(6-cyclopropyl-3-pyridyl)amino]-2-fluoro-3-pyridyl]methanone]
< 1000 | < 1000 | < 1000 | < 1000 | < 1000 | CC(C)(O)CNc1ncnc2[nH]cc(C(=O)c3ccc(Nc4ccc(C5CC5)nc4)nc3F)c12 [Compound P-4049, [6-[(6-cyclopropyl-3-pyridyl)amino]-2-fluoro-3-pyridyl]-[4-[(2-hydroxy-2-methyl-propyl)amino]-7H-pyrrolo[2,3-d]pyrimidin-5-yl]methanone]
< 1000 | > 1000 | < 1000 | < 1000 | < 1000 | CCNc1ncnc2[nH]cc(C(=O)c3ccc(NC4CCC(F)(F)CC4)nc3Cl)c12 [Compound P-4050, [2-chloro-6-[(4,4-difluorocyclohexyl)amino]-3-pyridyl]-[4-(ethylamino)-7H-pyrrolo[2,3-d]pyrimidin-5-yl]methanone]
< 1000 | > 1000 | < 1000 | < 10 | < 10 | CCNc1ncnc2[nH]cc(C(=O)c3cnc(NC4CCC(F)(F)CC4)c(F)c3)c12 [Compound P-4051, [6-[(4,4-difluorocyclohexyl)amino]-5-fluoro-3-pyridyl]-[4-(ethylamino)-7H-pyrrolo[2,3-d]pyrimidin-5-yl]methanone]
> 1000 | > 1000 | < 1000 | < 1000 | < 10 | O=C(c1cnc(NC2CCC(F)(F)CC2)c(F)c1)c1c[nH]c2ncnc(NCC(F)(F)F)c12 [Compound P-4052, [6-[(4,4-difluorocyclohexyl)amino]-5-fluoro-3-pyridyl]-[4-(2,2,2-trifluoroethylamino)-7H-pyrrolo[2,3-d]pyrimidin-5-yl]methanone]
< 1000 | < 1000 | < 10 | < 10 | < 10 | O=C(c1cnc(NC2CCC(F)(F)CC2)c(F)c1)c1c[nH]c2ncnc(NC3CC3)c12 [Compound P-4053, [4-(cyclopropylamino)-7H-pyrrolo[2,3-d]pyrimidin-5-yl]-[6-[(4,4-difluorocyclohexyl)amino]-5-fluoro-3-pyridyl]methanone]
> 1000 | < 1000 | < 1000 | < 1000 | < 10 | CNc1ncnc2[nH]cc(C(=O)c3cnc(NC4CCC(F)(F)CC4)c(F)c3)c12 [Compound P-4054, [6-[(4,4-difluorocyclohexyl)amino]-5-fluoro-3-pyridyl]-[4-(methylamino)-7H-pyrrolo[2,3-d]pyrimidin-5-yl]methanone]
